Key:
PIM3 = PIM3 (Homo sapiens, UniProt Q86V86); assay: KinaseGlo Pim3 ATP depletion assay; format: biochemical
In short: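 Residual ATP was detected by luciferase luminescence once about half had been consumed. The reaction contained 5 nM enzyme, 100 μM BAD peptide (RSRHSSYPAGT) and 40 μM ATP in 50 mM HEPES pH 7.5, 5 mM MgCl2, 1 mM DTT and 0.05% BSA with 2.5% DMSO. Compound and enzyme/peptide were premixed 15 min before ATP.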

PIM2 = PIM2 (Homo sapiens, UniProt Q9P1W9); assay: KinaseGlo Pim2 ATP depletion assay; format: biochemical
PIM2, sequence (Q9P1W9 whole entry): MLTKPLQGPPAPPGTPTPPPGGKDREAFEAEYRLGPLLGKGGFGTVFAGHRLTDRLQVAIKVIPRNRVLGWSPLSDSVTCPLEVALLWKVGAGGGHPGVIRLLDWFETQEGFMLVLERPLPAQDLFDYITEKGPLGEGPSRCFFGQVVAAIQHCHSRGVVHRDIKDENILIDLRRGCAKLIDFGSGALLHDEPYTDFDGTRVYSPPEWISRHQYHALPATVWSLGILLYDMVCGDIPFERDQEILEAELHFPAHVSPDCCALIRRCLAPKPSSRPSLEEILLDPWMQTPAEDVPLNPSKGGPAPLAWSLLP
In short: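 Compound sat 15 min with enzyme and BAD peptide before ATP was added; final levels 5 nM PIM2, 10 μM peptide, 4 μM ATP, 2.5% DMSO, pH 7.5 HEPES buffer with MgCl2, DTT, BSA. Stopped near 50% ATP consumption; remaining ATP measured by luciferase luminescence.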

GSK3β = GSK3β (Homo sapiens, UniProt P49841); assay: GSK3β ATP depletion assay; format: biochemical; details: read-out: GSK3b IC50
GSK3β, sequence (P49841 whole entry, species assumed): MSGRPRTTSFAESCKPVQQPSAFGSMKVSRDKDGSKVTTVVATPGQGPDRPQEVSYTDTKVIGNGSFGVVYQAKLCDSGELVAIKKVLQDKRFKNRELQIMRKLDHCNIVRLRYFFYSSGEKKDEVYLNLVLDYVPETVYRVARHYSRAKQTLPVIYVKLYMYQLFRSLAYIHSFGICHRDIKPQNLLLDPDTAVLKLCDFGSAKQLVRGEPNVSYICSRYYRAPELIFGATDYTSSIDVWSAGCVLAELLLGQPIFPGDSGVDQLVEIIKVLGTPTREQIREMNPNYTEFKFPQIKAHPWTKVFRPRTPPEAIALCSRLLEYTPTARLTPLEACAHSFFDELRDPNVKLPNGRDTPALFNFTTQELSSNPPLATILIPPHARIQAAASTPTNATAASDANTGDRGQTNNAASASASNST
In short: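 Kinase activity is read as ATP consumption: luciferase luminescence reports the ATP remaining once roughly half of the 2 μM ATP is used. Reaction mix: 5 nM GSK3β, 10 μM b-CREB peptide, 50 mM Tris pH 7.5, 15 mM MgCl2, 1 mM DTT, 0.1% BSA, 2.5% DMSO. Enzyme and peptide are preincubated 15 min before ATP is added.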

[1] = system: KMS11 (human myeloma cell line); assay: Cell proliferation assay (CellTiter-Glo), KMS11; format: cell-based; details: KMS11-Luc cells
In short: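 EC50 derived from CellTiter-Glo luminescence after 3-day exposure at 37° C. Compound was diluted to 2× in medium and added to an equal volume of cells. KMS11 myeloma cells were plated on assay day at 2000/well in IMDM with 10% FBS and sodium pyruvate.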

PIM1 = PIM1 (Homo sapiens, UniProt P11309); assay: KinaseGlo Pim1 ATP depletion assay; format: biochemical
PIM1, sequence (P11309 whole entry): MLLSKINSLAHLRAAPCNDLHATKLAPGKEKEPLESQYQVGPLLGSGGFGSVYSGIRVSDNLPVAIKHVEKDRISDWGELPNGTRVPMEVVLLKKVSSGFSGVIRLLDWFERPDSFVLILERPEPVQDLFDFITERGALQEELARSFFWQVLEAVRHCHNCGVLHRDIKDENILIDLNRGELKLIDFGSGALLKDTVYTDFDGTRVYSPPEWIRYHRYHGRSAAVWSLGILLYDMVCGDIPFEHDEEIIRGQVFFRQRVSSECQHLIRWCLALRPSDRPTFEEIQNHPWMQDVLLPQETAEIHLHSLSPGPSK
In short: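 IC50 is derived from residual ATP measured by KinaseGlo Plus luminescence once about half the ATP was consumed. Final conditions were 20 μM ATP, 40 μM BAD peptide and 2.5 nM kinase in HEPES pH 7.5 buffer with MgCl2, DTT and BSA, plus 2.5% DMSO. Compound and enzyme were premixed 15 min before ATP addition.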

Compound	IC50 (PIM3) [µM]	IC50 (PIM2) [µM]	IC50 (GSK3β) [µM]	EC50 ([1]; Homo sapiens, KMS-11) [µM]	IC50 (PIM1) [µM]	EC50 [1] [µM]
C[C@H]1O[C@@H](c2ccncc2NC(=O)c2ccc(F)c(-c3c(F)cccc3F)n2)C[C@H](O)[C@@H]1O [Example 108, 6-(2,6-difluorophenyl)-N-(4-((2R,4S,5S,6R)-4,5-dihydroxy-6-methyltetrahydro-2H-pyran-2-yl)pyridin-3-yl)-5-fluoropicolinamide]	0.005	0.015	0.344	4.2	0.001	
N#CC[C@H]1O[C@@H](c2ccncc2NC(=O)c2ccc(F)c(-c3c(F)cccc3F)n2)C[C@@H](O)[C@@H]1O [Example 137, N-(4-((2R,4R,5S,6R)-6-(cyanomethyl)-4,5-dihydroxytetrahydro-2H-pyran-2-yl)pyridin-3-yl)-6-(2,6-difluorophenyl)-5-fluoropicolinamide]	0.005	0.023	0.351	> 10	0.003	
O=C(Nc1cnccc1C1OCCCO1)c1ccc(F)c(-c2c(F)cccc2F)n1 [Example 118, N-(4-(1,3-dioxan-2-yl)pyridin-3-yl)-6-(2,6-difluorophenyl)-5-fluoropicolinamide]	0.017	0.363	3.52	> 10	0.004	
O=C(Nc1cnccc1[C@H]1C[C@@H](O)[C@H](O)[C@@H](CCl)O1)c1ccnc(-c2c(F)cccc2F)n1 [Example 37, N-(4-((2R,4R,5S,6S)-6-(chloromethyl)-4,5-dihydroxytetrahydro-2H-pyran-2-yl)pyridin-3-yl)-2-(2,6-difluorophenyl)pyrimidine-4-carboxamide]	0.017	0.065	0.014	> 10	0.012	
C[C@H]1O[C@@H](c2ccncc2NC(=O)c2ccc(F)c(-c3c(F)cccc3F)n2)C[C@@H](N)[C@@H]1O [Example 116, N-(4-((2R,4R,5S,6R)-4-amino-5-hydroxy-6-methyltetrahydro-2H-pyran-2-yl)pyridin-3-yl)-6-(2,6-difluorophenyl)-5-fluoropicolinamide]	0.007	0.023	3.06	1.9	0.002	
CC[C@]1(O)[C@H](O)C[C@H](c2ccncc2NC(=O)c2nc(-c3ccccc3)cnc2N)O[C@@H]1C [Example 15, 3-amino-N-(4-((2R,4R,5S,6R)-5-ethyl-4,5-dihydroxy-6-methyltetrahydro-2H-pyran-2-yl)pyridin-3-yl)-6-phenylpyrazine-2-carboxamide]	0.002	0.008	0.001	0.184	0.001	
O=C(Nc1cnccc1[C@H]1C[C@@H](O)[C@@]2(O)CCC[C@H]2O1)c1ccnn(-c2ccccc2F)c1=O [Example 201, N-(4-((2R,4R,4aS,7aR)-4,4a-dihydroxyoctahydrocyclopenta[b]pyran-2-yl)pyridin-3-yl)-2-(2-fluorophenyl)-3-oxo-2,3-dihydropyridazine-4-carboxamide]	0.132	3.21	0.383	> 10	0.149	
CC[C@]1(O)[C@H](O)C[C@H](c2ccncc2NC(=O)c2nc(-c3ccccc3)ncc2N)O[C@@H]1C [Example 26, 5-amino-N-(4-((2R,4R,5S,6R)-5-ethyl-4,5-dihydroxy-6-methyltetrahydro-2H-pyran-2-yl)pyridin-3-yl)-2-phenylpyrimidine-4-carboxamide]	0.002	0.029	0.277	> 10	0.004	
N#CC[C@H]1O[C@@H](c2ccncc2NC(=O)c2nc(-c3c(F)cccc3F)ncc2N)C[C@@H](O)[C@@H]1O [Example 153, 5-amino-N-(4-((2R,4R,5S,6R)-6-(cyanomethyl)-4,5-dihydroxytetrahydro-2H-pyran-2-yl)pyridin-3-yl)-2-(2,6-difluorophenyl)pyrimidine-4-carboxamide]	0.0135	0.0267	0.235		0.0236	> 10
CC[C@H]1O[C@@H](c2ccncc2NC(=O)c2nc(-c3c(F)cccc3F)c(F)cc2N)C[C@@H](O)[C@@H]1O [Example 43, 3-amino-6-(2,6-difluorophenyl)-N-(4-((2R,4R,5S,6R)-6-ethyl-4,5-dihydroxytetrahydro-2H-pyran-2-yl)pyridin-3-yl)-5-fluoropicolinamide]	0.001	0.001	0.188	1.7	0.001	
O=C(Nc1cnccc1[C@@H]1C[C@H](O)[C@]2(O)CCC[C@@H]2O1)c1cccn(-c2ccccc2)c1=O [Example 192, N-(4-((2S,4S,4aR,7aS)-4,4a-dihydroxyoctahydrocyclopenta[b]pyran-2-yl)pyridin-3-yl)-2-oxo-1-phenyl-1,2-dihydropyridine-3-carboxamide]	> 25	> 25	> 25	> 10	> 25	
CC[C@H]1O[C@@H](c2ccncc2NC(=O)c2nc(-c3ccccc3F)c(F)cc2N)C[C@@H](O)[C@@H]1O [Example 42, 3-amino-N-(4-((2R,4R,5S,6R)-6-ethyl-4,5-dihydroxytetrahydro-2H-pyran-2-yl)pyridin-3-yl)-5-fluoro-6-(2-fluorophenyl)picolinamide]	0.001	0.003	0.023	9.6	0.001	
CC[C@H]1O[C@@H](c2ncncc2NC(=O)c2ccc(F)c(-c3c(F)cccc3F)n2)C[C@@H](O)[C@@H]1O [Example 162, 6-(2,6-difluorophenyl)-N-(4-((2R,4R,5S,6R)-6-ethyl-4,5-dihydroxytetrahydro-2H-pyran-2-yl)pyrimidin-5-yl)-5-fluoropicolinamide]	0.178	0.818	13.5	> 10	0.216	
CC1(C)O[C@H](c2ccncc2NC(=O)c2csc(-c3c(F)cccc3F)n2)C[C@@H](O)[C@H]1O [Example 90, 2-(2,6-difluorophenyl)-N-(4-((2S,4R,5R)-4,5-dihydroxy-6,6-dimethyltetrahydro-2H-pyran-2-yl)pyridin-3-yl)thiazole-4-carboxamide]	0.031	0.5	0.046	4	0.005	
O=C(Nc1cnccc1[C@H]1OC[C@H](CO)O1)c1ccc(F)c(-c2c(F)cccc2F)n1 [Example 101, 6-(2,6-difluorophenyl)-5-fluoro-N-(4-((2S,4S)-4-(hydroxymethyl)-1,3-dioxolan-2-yl)pyridin-3-yl)picolinamide]	0.068	1.34	2.6	> 10	0.012	
N#C[C@H]1O[C@@H](c2ccncc2NC(=O)c2nc(-c3nccs3)ccc2N)C[C@@H](O)[C@@H]1O [Example 150, 3-amino-N-(4-((2R,4R,5S,6R)-6-cyano-4,5-dihydroxytetrahydro-2H-pyran-2-yl)pyridin-3-yl)-6-(thiazol-2-yl)picolinamide]	0.0533	0.156	0.207	> 10	0.0571	
CC[C@H]1O[C@@H](c2ccncc2NC(=O)c2cccn(-c3ccccc3)c2=O)C[C@@H](O)[C@@H]1O [Example 193, N-(4-((2R,4R,5S,6R)-6-ethyl-4,5-dihydroxytetrahydro-2H-pyran-2-yl)pyridin-3-yl)-2-oxo-1-phenyl-1,2-dihydropyridine-3-carboxamide]	7.57	> 25	> 25	> 10	5.85	
CC[C@H]1O[C@@H](c2ccncc2NC(=O)c2nc(-c3nccs3)ccc2N)C[C@@H](O)[C@@H]1O [Example 145, 3-amino-N-(4-((2R,4R,5S,6R)-6-ethyl-4,5-dihydroxytetrahydro-2H-pyran-2-yl)pyridin-3-yl)-6-(thiazol-2-yl)picolinamide]	0.0194	0.0575	2.25		0.0184	> 10
N#Cc1ccc(F)c(-c2nc(C(=O)Nc3cnccc3[C@H]3C[C@@H](O)[C@H](O)[C@@H](CCl)O3)ccc2F)c1F [Example 1, N-(4-((2R,4R,5S,6S)-6-(chloromethyl)-4,5-dihydroxytetrahydro-2H-pyran-2-yl)pyridin-3-yl)-6-(3-cyano-2,6-difluorophenyl)-5-fluoropicolinamide]	0.0032	0.005	0.033	9.35	0.017	

Reference: patent US20130109682A1, “CYCLIC ETHER COMPOUNDS USEFUL AS KINASE INHIBITORS” (NOVARTIS AG, priority 2010, published 2013)
